Measured values: patent publication US4202941A, “Glycerol oxidase and process for the production thereof and method for the quantitative determination of glycerol by glycerol oxidase” (Kyowa Hakko Kogyo, Co. Ltd., priority 1977, dated 1980)
Read-outs that look alike come from different tables or passages of the source.

Legend:
[1] = tested on: Enzyme of the genus Aspergillus (glycerol oxidase); assay: Inhibition of enzyme activity by 1 mM inhibitors (4-AA method); assay type: biochemical, Aspergillus japonicus KY-45; set-up: key: % of activity without inhibitor (no inhibitor = 100)
Procedure: (§1) The enzyme activity is expressed by "unit." A "unit" of the enzyme activity is defined as that amount of enzyme which will decompose 1μ mole of glycerol at 37° C. in 1 minute in the presence of oxygen. The determination of the enzyme activity is carried out as follows: glycerol is reacted with glycerol oxidase with stirring to form hydrogen peroxide, and 4-aminoantipyrine and phenol are reacted with the resulting hydrogen peroxide in the presence of peroxidase to derive quinoneimine pigment. The optical density at 500 nm of the resulting quinoneimine pigment is measured to determine the amount of generated hydrogen peroxide, whereby the enzyme activity is determined (which will be hereinafter referred to as "4-AA method").
(§2) Enzymes activities obtained by adding 1 mM of various inhibitors are shown in Table 1, the activity of the enzyme with no addition of the inhibitor being defined as 100. The activities are measured according to 4-AA method deriving a pigment of 4-aminoantipyrine system from the generated H2 O2.
(§3) Enzymological and physico-chemical properties of glycerol oxidase thus obtained are described below (as glycerol oxidase, the respective purified preparates obtained in Examples 1 and 2, are used).
(§4) Determination of the enzyme activity is carried out by reacting hydrogen peroxide generated by the enzyme with 4-aminoantipyrine and phenol in the presence of peroxidase to obtain quinoneimine pigment, and quantitatively determining the resulting quinoneimine pigment.
(§5) The reagents (1)-(6) are mixed in a test tube, and then shaken at 37° C. for 5 minutes. Then, enzyme solution is added thereto, and thus obtained mixture is made up to 3 ml with ammonium buffer solution. Reaction is carried out at 37° C. for 10 minutes with shaking. On the other hand, similar procedure is repeated using water in place of the test solution as a reference. The optical density of the reaction solution at 500 nm is measured, and a difference from the control is determined as Δ OD (optical density).
(§6) On the other hand, the absorption coefficient of 0.5 mM of quinoneimine pigment is reported as 5.33 [Clin. Chem. 20, 470 (1974)], and thus, if the optical density (Δ OD) at 500 nm of 3 ml of the reaction solution obtained according to the foregoing operational procedure IV-(c) is represented by a, the desired enzyme activity (A) per milliliter of the enzyme solution is calculated from the following formula: [formula]

[2] = tested on: Enzyme of the genus Neurospora (glycerol oxidase); assay: Substrate specificity, relative activity by 4-AA method; assay type: biochemical, Neurospora crassa KY-462; settings: substrate equimolar to glycerol
Procedure: as §1, §3
(§7) The relative activity is measured using other substrates in equimolar amounts to that of glycerol in the procedure for measuring the activity according to 4-AA method.
(§8) The relative activities on other substrates are given in Table 3, the activity on glycerol being defined as 100.
as §5

[3] = tested on: Enzyme of the genus Aspergillus (glycerol oxidase); assay: as above; assay type: biochemical, Aspergillus japonicus KY-45; settings: substrate equimolar to glycerol
Procedure: as §1, §3, §7, §8, §5

[4] = tested on: Enzyme of the genus Neurospora (glycerol oxidase); assay: Inhibition of enzyme activity by 1 mM inhibitors (4-AA method); assay type: biochemical, Neurospora crassa KY-462; set-up: key: % of activity without inhibitor (no inhibitor = 100)
Procedure: as §1, §2, §3, §4, §5, §6

[5] = 1 mM inhibitor, Enzyme of the genus Aspergillus, 4-AA method
[6] = 1 mM inhibitor, Enzyme of the genus Neurospora, 4-AA method

SMILES	Enzyme activity on adding inhibitor (activity with no inhibitor defined as 100) [1, 5]	Relative activity on substrate (activity on glycerol defined as 100) [2]	Relative activity on substrate (activity on glycerol defined as 100) [3]	also measured
O[C@H](CS)[C@H](O)CS (racemic) [dithiothreitol]	100			
c1cnc2c(c1)ccc1cccnc12 [0-phenanthroline]	90			
CC(O)CO (stereo not shown) [1,2-propanediol]		0	10.5	
CC(O)CCO (stereo not shown) [1,3-butanediol]		0	2.0	
OCCCO [1,3-propanediol]		0	3.3	
OCCCCO [1,4-butanediol]		0	0.3	
CC(O)C(C)O (stereo not shown) [2,3-butanediol]		0	0.3	
Oc1cccc2cccnc12 [8-hydroxyquinoline]				Enzyme activity on adding inhibitor (activity with no inhibitor defined as 100) [1]: 90
O=[N+]([O-])[O-].[Ag+] [AgNO3]	30			
O=S(=O)([O-])[O-].[Cu+2] [CuSO4]	10			Enzyme activity on adding inhibitor (activity with no inhibitor defined as 100) [4, 6]: 20
O=C(O)CN(CCN(CC(=O)O)CC(=O)O)CC(=O)O [EDTA]				Enzyme activity on adding inhibitor (activity with no inhibitor defined as 100) [1]: 105; Enzyme activity on adding inhibitor (activity with no inhibitor defined as 100) [4, 6]: 80
O=S(=O)([O-])[O-].[Fe+2] [FeSO4]				Enzyme activity on adding inhibitor (activity with no inhibitor defined as 100) [4, 6]: 0
O=P(O)(O)OCC(O)CO (stereo not shown) [Glycerol-3-phosphoric acid]		21	0.4	
[Cl][Hg][Cl] [HgCl2]	20			Enzyme activity on adding inhibitor (activity with no inhibitor defined as 100) [4, 6]: 23
CCN1C(=O)C=CC1=O [N-ethylmaleimide]	100			
Cl.NO [NH2 OH--HCl]	0			Enzyme activity on adding inhibitor (activity with no inhibitor defined as 100) [4, 6]: 0
[N-]=[N+]=[N-].[Na+] [NaN3]	20			
O=C(O)c1cc[c]([Hg][Cl])cc1 [PCMB, p-chloromercuribenzoate]	50			Enzyme activity on adding inhibitor (activity with no inhibitor defined as 100) [4, 6]: 108
CC(=O)[O-].CC(=O)[O-].[Pb+2] [Pb(CH3 COO)2]	15			
O=S(=O)([O-])[O-].[Zn+2] [ZnSO4]				Enzyme activity on adding inhibitor (activity with no inhibitor defined as 100) [4, 6]: 23
N[C@@H](CS)C(=O)O [cysteine]				Enzyme activity on adding inhibitor (activity with no inhibitor defined as 100) [4, 6]: 60
CCO [ethanol]		0	0	
OCC(O)CO [glycerol]		100	100	
O=C(O)CI [iodoacetate]				Enzyme activity on adding inhibitor (activity with no inhibitor defined as 100) [4]: 100
CC(C)O [isopropyl alcohol]		0	0	
CCCO [n-propyl alcohol]		0	0	
Cc1ccc2ccc3ccc(C)nc3c2n1 [neocuproine]	100			
c1ccc(-c2ccccn2)nc1 [α,α'-dipyridyl]	85			
